pIC50: −log10 of the molar value.

The term pIC50 denotes the negative decadic logarithm of the IC50, by convention in mol/L. The low end stands for a high IC50, the high end for a low IC50.

ASK1 kinase, sequence (Q99683 whole entry): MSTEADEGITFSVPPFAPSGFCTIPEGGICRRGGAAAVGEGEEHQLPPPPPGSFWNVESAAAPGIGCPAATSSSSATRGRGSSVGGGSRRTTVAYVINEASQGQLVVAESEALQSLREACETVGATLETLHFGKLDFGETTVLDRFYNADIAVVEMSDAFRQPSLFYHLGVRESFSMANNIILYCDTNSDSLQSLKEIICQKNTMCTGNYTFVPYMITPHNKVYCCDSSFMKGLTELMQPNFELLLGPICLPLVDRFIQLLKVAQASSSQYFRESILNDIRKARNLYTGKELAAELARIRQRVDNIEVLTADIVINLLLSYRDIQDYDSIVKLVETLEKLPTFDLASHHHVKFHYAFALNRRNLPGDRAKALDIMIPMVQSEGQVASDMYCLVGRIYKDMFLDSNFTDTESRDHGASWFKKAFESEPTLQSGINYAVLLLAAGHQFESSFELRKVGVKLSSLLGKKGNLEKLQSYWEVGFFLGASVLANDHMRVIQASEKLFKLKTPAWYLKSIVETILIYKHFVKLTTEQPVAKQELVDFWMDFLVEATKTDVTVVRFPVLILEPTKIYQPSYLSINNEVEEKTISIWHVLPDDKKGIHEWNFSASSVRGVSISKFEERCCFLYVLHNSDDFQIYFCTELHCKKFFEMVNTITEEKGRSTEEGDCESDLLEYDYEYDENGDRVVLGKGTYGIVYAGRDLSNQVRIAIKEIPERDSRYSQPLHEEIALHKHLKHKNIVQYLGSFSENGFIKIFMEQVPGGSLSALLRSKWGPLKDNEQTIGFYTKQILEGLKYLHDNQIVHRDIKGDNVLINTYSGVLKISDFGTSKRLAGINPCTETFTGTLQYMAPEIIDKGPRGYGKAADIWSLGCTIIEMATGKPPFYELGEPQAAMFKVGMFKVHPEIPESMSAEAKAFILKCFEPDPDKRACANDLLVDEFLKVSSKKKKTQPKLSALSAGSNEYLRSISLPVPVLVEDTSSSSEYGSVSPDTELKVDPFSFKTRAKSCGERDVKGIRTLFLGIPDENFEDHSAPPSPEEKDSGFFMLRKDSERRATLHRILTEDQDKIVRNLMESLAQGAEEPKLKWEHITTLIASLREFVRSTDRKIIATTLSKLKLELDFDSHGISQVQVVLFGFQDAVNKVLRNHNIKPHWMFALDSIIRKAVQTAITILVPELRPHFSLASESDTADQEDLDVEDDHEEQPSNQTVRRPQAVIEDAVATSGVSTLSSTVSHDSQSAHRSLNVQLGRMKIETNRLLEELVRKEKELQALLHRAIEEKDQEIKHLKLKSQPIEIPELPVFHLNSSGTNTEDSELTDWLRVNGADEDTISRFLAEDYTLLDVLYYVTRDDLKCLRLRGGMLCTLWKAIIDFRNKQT

The target in the assay is ASK1 kinase (Homo sapiens (Human), UniProt Q99683). Nature of the assay: HTRF KinEASE assay of ASK1 kinase activity inhibition. In kind it is biochemical. Conditions: 5 nM ASK1, 1 uM STK3 peptide substrate, 100 uM ATP, TR-FRET readout. How it is done:
The ability (IC50) of compounds to inhibit ASK1 kinase activity was determined by HTRF® KinEASE™ Assay System. ASK1 was purchased from Thermofisher (Catalogue #PV4011), ATP was purchased from Sigma (Catalogue #A7699), HTRF® KinEASE™ Assay System was obtained from Cisbio (Bedford, Mass.). ½ Area plate was purchased from Perkin Elmer (Catalogue ##6005560). HTRF® KinEASE™-STK is a generic method for measuring serine/threonine kinase activities using a time-resolved fluorescence resonance energy transfer (TR-FRET) immunoassay. The IC50 value for each compound was determined in the presence of compound (various concentration from 0 to 10 μM) and a fixed amount of ATP and peptide substrates. The test compound, 1 uM STK3 peptide substrate, and 5 nM of ASK1 kinase are incubated with kinase reaction buffer containing 50 mM HEPES pH 7.5, 0.01% BRIJ-35, 10 mM MgCl2, and 1 mM EGTA for 30 minutes. 100 uM ATP is added to start kinase reaction and incubated for 3 hours. The STK3-antibody labeled with Eu^3+-Cryptate and 125 nM streptavidin-XL665 are mixed in a single addition with stop reagents provided by the Cisbio kit used to stop the kinase reaction. Fluorescence is detected using an Envision Multilabeled 2014 reader from PerkinElmer. The Fluorescence is measured at 615 nm (Cryptate) and 665 nm (XL665) and a ratio of 665 nm/615 nm is calculated for each well. The resulting TR-FRET is proportional to the phosphorylation level. Staurosporine was used as the positive control. IC50 was determined by XLfit 5.3. By using above method, the inhibition of ASK1 was tested for the compound of formula (I). IC50 ranges are as follows: A<1 nM; 1 nM<B<10 nM; 10 nM<C<100 nM; 100 nM<D<1 μM; E>1 μM.
On the technique in general: Time-resolved FRET reads energy transfer from a long-lived donor to a nearby acceptor.
For `Cc1cc(F)c(C(=O)Nc2cccc(-c3nnnn3[C@H](C)CO)n2)cc1-c1cn(C(C)C)cn1` [Example 63], the pIC50 is 7.00 to 8.00.
As to `Cc1cc(F)c(C(=O)Nc2cccc(-c3nnnn3C(C)C)n2)cc1-c1ccccn1` [Example 64], the pIC50 is 6.00 to 7.00.
`Cc1cc(F)c(C(=O)Nc2cccc(-c3nnnn3C(C)C)n2)cc1-c1cccnc1` [Example 65] gave a negative logarithm of the IC50 (pIC50) of 8.00 to 9.00.
The compound `Cc1cc(F)c(C(=O)Nc2cccc(-c3nnnn3C(C)C)n2)cc1-c1ccncc1` [Example 66] had a pIC50 of 7.00 to 8.00.
Compound `Cc1ncc(-c2cc(C(=O)Nc3cccc(-c4nnnn4C(C)C)n3)c(F)cc2C)s1` [Example 67] gave a negative-log IC50 (pIC50) of 7.00 to 8.00.
For `Cc1nc(-c2cc(C(=O)Nc3cccc(-c4nnnn4C(C)C)n3)c(F)cc2C)cs1` [Example 68], the negative logarithm of the IC50 (pIC50) is 6.00 to 7.00.
As for `Cc1cc(F)c(C(=O)Nc2cccc(-c3nnnn3C(C)C)n2)cc1-c1ccc(C2CC2)s1` [Example 69], the figure is 7.00 to 8.00; as for `Cc1cc(F)c(C(=O)Nc2cccc(-c3nnnn3[C@H](C)CO)n2)cc1-c1ccc(C2CC2)s1` [Example 70], 8.00 to 9.00; as for `Cc1cc(F)c(C(=O)Nc2cccc(-c3nnnn3C(C)C)n2)cc1-c1cc(C2CC2)on1` [Example 71], 7.00 to 8.00.
`COc1cc(C)c(-c2cnn(C)c2)cc1C(=O)Nc1cccc(-c2nnnn2C(C)C)n1` [Example 73] showed a pIC50 of 8.00 to 9.00.
As for `COc1cc(C)c(-c2cnn(C)c2)cc1C(=O)Nc1cccc(-n2nnnc2C(C)C)n1` [Example 74], the figure is 8.00 to 9.00; as for `COc1cc(C)c(-c2cnn(C3CC3)c2)cc1C(=O)Nc1cccc(-c2nnnn2C(C)C)n1` [Example 75], more than 9.00; as for `COc1cc(C)c(-c2cnn(C3CC3)c2)cc1C(=O)Nc1cccc(-n2nnnc2C(C)C)n1` [Example 76], more than 9.00.
Take `COc1cc(C)c(-c2cnn(C3CC3)c2)cc1C(=O)Nc1cccc(-c2nnnn2[C@H](C)CO)n1` [Example 77, 5-(1-cyclopropyl-1H-pyrazol-4-yl)-N-(6-[1-[(2R)-1-hydroxypropan-2-yl]-1H-1,2,3,4-tetrazol-5-yl]pyridin-2-yl)-2-methoxy-4-methylbenzamide]: the pIC50 was more than 9.00.
For the compound `COc1cc(C)c(-c2ccn(C(C)C)n2)cc1C(=O)Nc1cccc(-c2nnnn2C(C)C)n1` [Example 78], the pIC50 is 8.00 to 9.00.
In turn, `COc1cc(C)c(-c2ccn(C(C)C)n2)cc1C(=O)Nc1cccc(-n2nnnc2C(C)C)n1` [Example 79] showed a pIC50 of 7.00 to 8.00.
Compound `COc1cc(C)c(-c2ccn(C(C)C)n2)cc1C(=O)Nc1cccc(-c2nnnn2[C@H](C)CO)n1` [Example 80] gave a pIC50 of more than 9.00.
Next, `Cc1cc(F)c(C(=O)Nc2cccc(-c3nnnn3[C@H]3CCOC3)n2)cc1-c1cnn(C2CC2)c1` [Example 81]: 8.00 to 9.00; `Cc1cc(F)c(C(=O)Nc2cccc(-c3nnnn3[C@@H]3CCOC3)n2)cc1-c1cnn(C2CC2)c1` [Example 82]: 8.00 to 9.00; `Cc1cc(F)c(C(=O)Nc2cccc(-c3nnnn3[C@H]3CCC[C@@H]3O)n2)cc1-c1cnn(C2CC2)c1` [Example 83]: 8.00 to 9.00.
Next, `Cc1cc(F)c(C(=O)Nc2cccc(-c3nnnn3[C@@H]3CCC[C@@H]3O)n2)cc1-c1cnn(C2CC2)c1` [Example 84]: 8.00 to 9.00.

These data come from US11008304B2, “Tetrazole containing apoptosis signal-regulating kinase 1 inhibitors and methods of use thereof” (ENANTA PHARMACEUTICALS, INC., priority 2018, dated 2021).
